# From patent US9326516B2, “Molecules having certain pesticidal utilities, and intermediates, compositions, and processes related thereto” (Dow AgroSciences LLC, priority 2014, dated 2016)
# Tests used:
# Format in all cases: in vivo
# [1] = test system: Beet Armyworm (Spodoptera exigua, LAPHEG); assay: Bioassay on Beet Armyworm (BAW), 128-well diet tray assay; settings: 168 h, 50 μg/cm^2 on artificial diet, second instar BAW larvae, 25° C., five to seven days, average of eight wells, read-out: BAW % Control (or Mortality) rating
# Experimental: (§1) Certain molecules disclosed in this document were tested against BAW and CEW using procedures described in the following examples. In the reporting of the results, the “BAW & CL Rating Table” was used (See Table Section).
# Bioassays on BAW were conducted using a 128-well diet tray assay. one to five second instar BAW larvae were placed in each well (3 mL) of the diet tray that had been previously filled with 1 mL of artificial diet to which 50 μg/cm^2 of the test compound (dissolved in 50 μL of 90:10 acetone-water mixture) had been applied (to each of eight wells) and then allowed to dry. Trays were covered with a clear self-adhesive cover and held at 25° C., 14:10 light-dark for five to seven days. Percent mortality was recorded for the larvae in each well; activity in the eight wells was then averaged. The results are indicated in the table entitled “Table ABC: Biological Results” (See Table Section).
# [2] = test system: Cabbage Looper (Trichoplusia ni, TRIPNI); assay: Bioassay on Cabbage Looper (CL), 128-well diet tray assay; settings: 168 h, 50 μg/cm^2 on artificial diet, second instar CL larvae, 25° C., five to seven days, average of eight wells, read-out: CL % Control (or Mortality) rating
# Experimental: as §1
# Bioassays on CL were conducted using a 128-well diet tray assay, one to five second instar CL larvae were placed in each well (3 mL) of the diet tray that had been previously filled with 1 mL of artificial diet to which 50 μg/cm^2 of the test compound (dissolved in 50 μL of 90:10 acetone-water mixture) had been applied (to each of eight wells) and then allowed to dry. Trays were covered with a clear self-adhesive cover and held at 25° C., 14:10 light-dark for five to seven days. Percent mortality was recorded for the larvae in each well; activity in the eight wells was then averaged. The results are indicated in the table entitled “Table ABC: Biological Results” (See Table Section).
# [3] = test system: Green Peach Aphid (Myzus persicae, MYZUPE); assay: Bioassay on Green Peach Aphid (GPA), foliar spray on cabbage seedlings; settings: 72 h, 200 ppm spray on infested cabbage seedlings, graded after three days, Abbott corrected % control, read-out: GPA % Control (or Mortality) rating
# Experimental: Certain molecules disclosed in this document were tested against GPA using procedures described in the following example. In the reporting of the results, the “GPA Rating Table” was used (See Table Section).
# Cabbage seedlings grown in 3-inch pots, with 2-3 small (3-5 cm) true leaves, were used as test substrate. The seedlings were infested with 20-50 GPA (wingless adult and nymph stages) one day prior to chemical application. Four pots with individual seedlings were used for each treatment. Test compounds (2 mg) were dissolved in 2 mL of acetone/methanol (1:1) solvent, forming stock solutions of 1000 ppm test compound. The stock solutions were diluted 5× with 0.025% Tween 20 in water to obtain the solution at 200 ppm test compound. A hand-held aspirator-type sprayer was used for spraying a solution to both sides of […] leaves until runoff. Reference plants (solvent check) were sprayed with the diluent only containing 20% by volume of acetone/methanol (1:1) solvent. Treated plants were held in a holding room for three days at approximately 25° C. and ambient relative humidity (RH) prior to grading. Evaluation was conducted by counting the number of live aphids per plant under a microscope. Percent Control was measured by using Abbott's correction formula (W. S. Abbott, “A Method of Computing the Effectiveness of an Insecticide” J. Econ. Entomol. 18 (1925), pp. 265-267) as follows. Corrected % Control=100*(X−Y)/X where X=No. of live aphids on solvent check plants and Y=No. of live aphids on treated plants
# [4] = test system: Yellow Fever Mosquito (Aedes aegypti, AEDSAE); settings: about 1 day-old larvae, master plate 4000 ppm in DMSO diluted, room temperature, scored after 3 days on mortality
# Experimental: Certain molecules disclosed in this document were tested against YFM using procedures described in the following paragraph. In the reporting of the results, the “YFM Rating Table” was used (See Table Section).
# Master plates containing 400 μg of a molecule dissolved in 100 μL of dimethyl sulfoxide (DMSO) (equivalent to a 4000 ppm solution) are used. A master plate of assembled molecules contains 15 μL per well. To this plate, 135 μL of a 90:10 water:acetone mixture is added to each well. A robot (Biomek® NXP Laboratory Automation Workstation) is programmed to dispense 15 μL aspirations from the master plate into an empty 96-well shallow plate (“daughter” plate). There are 6 reps (“daughter” plates) created per master. The created daughter plates are then immediately infested with YFM larvae.
# The day before plates are to be treated, mosquito eggs are placed in Millipore water containing liver powder to begin hatching (4 g. into 400 mL). After the daughter plates are created using the robot, they are infested with 220 μL of the liver powder/larval mosquito mixture (about 1 day-old larvae). After plates are infested with mosquito larvae, a non-evaporative lid is used to cover the plate to reduce drying. Plates are held at room temperature for 3 days prior to grading. After 3 days, each well is observed and scored based on mortality.
structure (smiles),measurement,setting,value
"FC(F)(F)Oc1ccc(-n2cnc(-c3ccc(NC4=N[C@@H](c5ccccc5)CO4)cc3)n2)cc1 [Compound F2, (S)-4-Phenyl-N-(4-(1-(4-(trifluoromethoxy)phenyl)-1H-1,2,4-triazol-3-yl)phenyl)-4,5-dihydrooxazol-2-amine]",mortality at 50 µg/cm2,[1],50 to 100%
same,mortality at 50 µg/cm2,[2],50 to 100%
same,mortality at 200 ppm,[3],80 to 100%
same,YFM % Control (or Mortality) rating,[4],B (More than 0-Less than 80)
"FC(F)(F)Oc1ccc(-n2cnc(-c3ccc(NC4=NC(c5ccc(C(F)(F)F)cc5)CO4)cc3)n2)cc1 (stereo not shown) [Compound F5, N-(4-(1-(4-(Trifluoromethoxy)phenyl)-1H-1,2,4-triazol-3-yl)phenyl)-4-(4-(trifluoromethyl)phenyl)-4,5-dihydrooxazol-2-amine]",mortality at 50 µg/cm2,[1],50 to 100%
same,mortality at 50 µg/cm2,[2],50 to 100%
same,mortality at 200 ppm,[3],80 to 100%
same,YFM % Control (or Mortality) rating,[4],B (More than 0-Less than 80)
"FC(F)(F)Oc1ccc(-n2cnc(-c3ccc(NC4=NC(c5ccccc5Cl)CO4)cc3)n2)cc1 (stereo not shown) [Compound F11, 4-(2-Chlorophenyl)-N-(4-(1-(4-(trifluoromethoxy)phenyl)-1H-1,2,4-triazol-3-yl)phenyl)-4,5-dihydrooxazol-2-amine]",mortality at 50 µg/cm2,[1],50 to 100%
same,mortality at 50 µg/cm2,[2],50 to 100%
same,mortality at 200 ppm,[3],0%
same,YFM % Control (or Mortality) rating,[4],D (No activity noticed in this bioassay)
"FC(F)(F)Oc1ccc(-n2cnc(-c3ccc(NC4=N[C@H](c5ccccc5)CCO4)cc3)n2)cc1 [Compound F20, (S)-4-Phenyl-N-(4-(1-(4-(trifluoromethoxy)phenyl)-1H-1,2,4-triazol-3-yl)phenyl)-5,6-dihydro-4H-1,3-oxazin-2-amine]",mortality at 50 µg/cm2,[1],0%
same,mortality at 50 µg/cm2,[2],50 to 100%
same,mortality at 200 ppm,[3],80 to 100%
same,YFM % Control (or Mortality) rating,[4],B (More than 0-Less than 80)
"FC(F)(F)Oc1ccc(-n2cnc(-c3ccc(NC4=NC(c5ccc(Cl)cc5)CCO4)cc3)n2)cc1 (stereo not shown) [Compound F43, 4-(4-Chlorophenyl)-N-(4-(1-(4-(trifluoromethoxy)phenyl)-1H-1,2,4-triazol-3-yl)phenyl)-5,6-dihydro-4H-1,3-oxazin-2-amine]",mortality at 50 µg/cm2,[1],0 to 50%
same,mortality at 50 µg/cm2,[2],50 to 100%
same,mortality at 200 ppm,[3],80 to 100%
same,YFM % Control (or Mortality) rating,[4],B (More than 0-Less than 80)
"Cc1ccc(C2CCOC(Nc3ccc(-c4ncn(-c5ccc(OC(F)(F)F)cc5)n4)cc3)=N2)cc1 (stereo not shown) [Compound F44, 4-(p-Tolyl)-N-(4-(1-(4-(trifluoromethoxy)phenyl)-1H-1,2,4-triazol-3-yl)phenyl)-5,6-dihydro-4H-1,3-oxazin-2-amine]",mortality at 50 µg/cm2,[1],0 to 50%
same,mortality at 50 µg/cm2,[2],50 to 100%
same,mortality at 200 ppm,[3],80 to 100%
same,YFM % Control (or Mortality) rating,[4],B (More than 0-Less than 80)
"FC(F)(F)Oc1ccc(-n2cnc(-c3ccc(NC4=NC(c5ccc(C(F)(F)F)cc5)CCO4)cc3)n2)cc1 (stereo not shown) [Compound F45, N-(4-(1-(4-(Trifluoromethoxy)phenyl)-1H-1,2,4-triazol-3-yl)phenyl)-4-(4-(trifluoromethyl)phenyl)-5,6-dihydro-4H-1,3-oxazin-2-amine]",mortality at 50 µg/cm2,[1],50 to 100%
same,mortality at 50 µg/cm2,[2],50 to 100%
same,mortality at 200 ppm,[3],80 to 100%
same,YFM % Control (or Mortality) rating,[4],B (More than 0-Less than 80)
